Laboratory results reported in patent US20250188040A1, “PHARMACEUTICAL COMPOSITIONS COMPRISING WRN HELICASE INHIBITORS” (Vividion Therapeutics, Inc., priority 2022, published 2025).
pIC50: −log10 of the molar value. “And” between values parts separate entries of the source, which are not always exact repeats. Equal entries are not always repeated. Where two headings read alike, the source gives them in different places. One block for each compound: values may come before it.

Legend:
SW480 cells = test: Cell growth assay (CellTiter-Glo 2.0), SW480 MSS cell line; details: read-out: Cell Growth Inhibition GI50 SW480
Description: The effects of compound on cellular viability were determined using the CellTiter-Glo® 2.0 Luminescent Cell Viability Assay (Promega, Madison, WI).
SW480 cells were seeded at 1,000 cells per well in Eagle's Minimum Essential Medium (EMEM) with 10% FBS. Both cell lines were seeded in a volume of 50 μL medium per well. […] The concentration range was adjusted as needed for compounds of different potencies. The cells treated with compounds were incubated for 5 days at 37° C. in 5% CO2. […] The plate was then read on a Clariostar plate reader (BMG Labtech, Cary, NC) in luminescence mode. The previously measured baseline cell viability was subtracted from the luminescence value of each well, and cell viability (% of DMSO) was plotted as a function of log compound concentration. The EC50 was then calculated for each compound using Dotmatics Software (San Diego, CA).

HCT 116 cells = test: Cell growth assay (CellTiter-Glo 2.0), HCT 116 MSI-H cell line; details: read-out: Cell Growth Inhibition GI50 HCT-116
[1] = target: hWRN(519-1227)_C-H3CV-GFP-10His (Homo sapiens, UniProt Q14191); test: Helicase Assay for WRN Inhibition (ATP-dependent, fluorescence based)
Sequence of hWRN(519-1227)_C-H3CV-GFP-10His (Q14191 519-1227): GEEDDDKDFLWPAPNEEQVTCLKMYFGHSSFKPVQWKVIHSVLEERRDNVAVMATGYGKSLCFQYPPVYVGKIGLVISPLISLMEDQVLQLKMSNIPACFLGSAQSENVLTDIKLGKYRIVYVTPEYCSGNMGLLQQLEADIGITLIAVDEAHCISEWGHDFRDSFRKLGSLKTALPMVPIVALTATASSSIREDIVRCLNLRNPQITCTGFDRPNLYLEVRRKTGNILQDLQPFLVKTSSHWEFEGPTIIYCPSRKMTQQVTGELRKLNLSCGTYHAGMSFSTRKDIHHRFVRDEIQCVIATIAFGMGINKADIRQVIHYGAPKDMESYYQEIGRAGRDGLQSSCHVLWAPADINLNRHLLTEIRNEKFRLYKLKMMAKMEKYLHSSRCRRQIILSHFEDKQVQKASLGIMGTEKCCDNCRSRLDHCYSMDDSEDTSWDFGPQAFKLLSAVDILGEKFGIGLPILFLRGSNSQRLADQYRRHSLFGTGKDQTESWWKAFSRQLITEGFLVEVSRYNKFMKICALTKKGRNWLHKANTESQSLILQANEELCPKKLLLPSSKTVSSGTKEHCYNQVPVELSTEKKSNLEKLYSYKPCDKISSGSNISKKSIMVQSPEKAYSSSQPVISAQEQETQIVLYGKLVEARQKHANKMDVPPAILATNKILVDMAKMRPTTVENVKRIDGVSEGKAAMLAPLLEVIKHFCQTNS

[2] = HCT-116 (MSI-H), 5-day incubation
[3] = read-out: WRN Helicase IC50, 30 min preincubation with ATP, 30 min reaction
[4] = WRN Helicase IC50, 30 min preincubation with ATP, 30 min reaction

GI50 (SW480 cells; Homo sapiens, SW480, 120 h): 24 µM
GI50 (HCT 116 cells; Homo sapiens, HCT-116, 120 h): 0.023 µM
Compound: CC(F)(F)c1ncc(C(=O)NC(C=CS(C)(=O)=O)C2CC(F)(F)C2)c(Oc2ccccc2)n1 (single isomer, unassigned) [192/193]

GI50 (HCT 116 cells; Homo sapiens, HCT-116, 120 h): 2.1 µM
Compound: CS(=O)(=O)/C=C/CNC(=O)c1cnc(C2CCCC2)nc1Oc1ccccc1 [Example 1, (E)-2-cyclopentyl-N-(3-(methylsulfonyl)allyl)-4-phenoxypyrimidine-5-carboxamide]

GI50 (SW480 cells; Homo sapiens, SW480, 120 h): 41.4 µM
GI50 (HCT 116 cells; Homo sapiens, HCT-116, 120 h): 0.11 µM
pIC50 [1, 4]: 6.57
Compound: CN(C)C(=O)C[C@@H](/C=C/S(C)(=O)=O)NC(=O)c1cnc(C(C)(C)C)nc1Oc1ccccc1 [Example 71, (S,E)-2-(tert-butyl)-N-(5-(dimethylamino)-1-(methylsulfonyl)-5-oxopent-1-en-3-yl)-4-phenoxypyrimidine-5-carboxamide]

GI50 (SW480 cells; Homo sapiens, SW480, 120 h): 41.7 µM
GI50 (HCT 116 cells; Homo sapiens, HCT-116, 120 h): 0.224 µM
Compound: C[C@@H](/C=C/S(C)(=O)=O)NC(=O)c1cnc(C(C)(F)F)nc1Oc1ccccc1 [Example 86, (S,E)-2-(1,1-difluoroethyl)-N-(4-(methylsulfonyl)but-3-en-2-yl)-4-phenoxypyrimidine-5-carboxamide]

GI50 (SW480 cells; Homo sapiens, SW480, 120 h): 19.2 µM
GI50 (HCT 116 cells; Homo sapiens, HCT-116, 120 h): 0.327 µM
pIC50 [1, 4]: 6.16
Compound: CC(F)(F)c1ncc(C(=O)N[C@H](/C=C/S(C)(=O)=O)CC(F)F)c(Oc2ccccc2)n1 [Example 90, (S,E)-N-(5,5-difluoro-1-(methylsulfonyl)pent-1-en-3-yl)-2-(1,1-difluoroethyl)-4-phenoxypyrimidine-5-carboxamide]

GI50 (SW480 cells; Homo sapiens, SW480, 120 h): 26.1 µM
GI50 (HCT 116 cells; Homo sapiens, HCT-116, 120 h): 0.252 µM
pIC50 [1, 4]: 6.22
Compound: CC(F)(F)c1ncc(C(=O)N[C@H](/C=C/S(C)(=O)=O)C2CCC(F)(F)CC2)c(Oc2ccccc2)n1 [Example 91, (S,E)-N-(1-(4,4-difluorocyclohexyl)-3-(methylsulfonyl)allyl)-2-(1,1-difluoroethyl)-4-phenoxypyrimidine-5-carboxamide]

GI50 (SW480 cells; Homo sapiens, SW480, 120 h): 40 µM
GI50 (HCT 116 cells; Homo sapiens, HCT-116, 120 h): 0.07 µM
pIC50 [1, 4]: 6.66
Compound: CC(F)(F)c1ncc(C(=O)N[C@H](/C=C/S(C)(=O)=O)COC2CC2)c(Oc2ccccc2)n1 [Example 97, (R,E)-N-(1-cyclopropoxy-4-(methylsulfonyl)but-3-en-2-yl)-2-(1,1-difluoroethyl)-4-phenoxypyrimidine-5-carboxamide]

GI50 (SW480 cells; Homo sapiens, SW480, 120 h): 32 µM
GI50 (HCT 116 cells; Homo sapiens, HCT-116, 120 h): 0.33 µM
pIC50 [1, 4]: 5.72
Compound: [2H]c1c([2H])c([2H])c(Oc2nc(C3CC3)ncc2C(=O)N[C@@H](C)/C=C/S(C)(=O)=O)c([2H])c1[2H] [Example 140]

GI50 (SW480 cells; Homo sapiens, SW480, 120 h): 12 µM
GI50 (HCT 116 cells; Homo sapiens, HCT-116, 120 h): 0.086 µM
pIC50 [1, 4]: 6.43
Compound: CN(C)c1ncc(C(=O)N[C@H](/C=C/S(C)(=O)=O)C2CC2)c(Oc2ccccc2)n1 [Example 177, (S,E)-N-(1-cyclopropyl-3-(methylsulfonyl)allyl)-2-(dimethylamino)-4-phenoxypyrimidine-5-carboxamide]

GI50 (SW480 cells; Homo sapiens, SW480, 120 h): 45 µM
GI50 (HCT 116 cells; Homo sapiens, HCT-116, 120 h): 3.2 µM
pIC50 [1, 4]: 4.82
Compound: CNc1ncc(C(=O)N[C@H](/C=C/S(C)(=O)=O)C2CC2)c(Oc2ccccc2)n1 [Example 178, (S,E)-N-(1-cyclopropyl-3-(methylsulfonyl)allyl)-2-(methylamino)-4-phenoxypyrimidine-5-carboxamide]

GI50 (SW480 cells; Homo sapiens, SW480, 120 h): 7 µM
GI50 (HCT 116 cells; Homo sapiens, HCT-116, 120 h): 0.198 µM
pIC50 [1, 4]: 5.98
Compound: CCN(CC)c1ncc(C(=O)N[C@H](/C=C/S(C)(=O)=O)C2CC2)c(Oc2ccccc2)n1 [Example 179, (S,E)-N-(1-cyclopropyl-3-(methylsulfonyl)allyl)-2-(diethylamino)-4-phenoxypyrimidine-5-carboxamide]

GI50 (SW480 cells; Homo sapiens, SW480, 120 h): 3.4 µM
GI50 (HCT 116 cells; Homo sapiens, HCT-116, 120 h): 0.0582 µM
pIC50 [1, 4]: 6.36
Compound: CN(c1ncc(C(=O)N[C@H](/C=C/S(C)(=O)=O)C2CC2)c(Oc2ccccc2)n1)C1CC1 [Example 180, (S,E)-2-(cyclopropyl(methyl)amino)-N-(1-cyclopropyl-3-(methylsulfonyl)allyl)-4-phenoxypyrimidine-5-carboxamide]

GI50 (SW480 cells; Homo sapiens, SW480, 120 h): 6.1 µM
GI50 (HCT 116 cells; Homo sapiens, HCT-116, 120 h): 0.011 µM
pIC50 [1, 4]: 7.25
Compound: CS(=O)(=O)/C=C/[C@@H](NC(=O)c1ccc(C(F)(F)C2CC2)nc1Oc1ccccc1)C1CC1 [Example 234, (S,E)-N-(1-cyclopropyl-3-(methylsulfonyl)allyl)-6-(cyclopropyldifluoromethyl)-2-phenoxynicotinamide]

GI50 (SW480 cells; Homo sapiens, SW480, 120 h): 4.5 µM
GI50 (HCT 116 cells; Homo sapiens, HCT-116, 120 h): 0.012 µM
pIC50 [1, 4]: 7.38
Compound: CS(=O)(=O)/C=C/[C@@H](NC(=O)c1cc(F)c(C(F)(F)C2CC2)nc1Oc1ccccc1)C1CC1 [Example 236, (S,E)-N-(1-cyclopropyl-3-(methylsulfonyl)allyl)-6-(cyclopropyldifluoromethyl)-5-fluoro-2-phenoxynicotinamide]

GI50 (SW480 cells; Homo sapiens, SW480, 120 h): > 10 µM
GI50 (HCT 116 cells; Homo sapiens, HCT-116, 120 h): 8.4 µM
pIC50 [1, 4]: 4.92
Compound: CSc1ncc(C(=O)NC/C=C/S(C)(=O)=O)c(Oc2ccccc2)n1 [Example 241, (E)-N-(3-(methylsulfonyl)allyl)-2-(methylthio)-4-phenoxypyrimidine-5-carboxamide]

GI50 (SW480 cells; Homo sapiens, SW480, 120 h): > 10 µM
GI50 (HCT 116 cells; Homo sapiens, HCT-116, 120 h): 2.8 µM
pIC50 [1, 4]: 5.01
Compound: C[C@@H](/C=C/S(C)(=O)=O)NC(=O)c1cc2ccccc2nc1Oc1ccccc1 [Example 242, (S,E)-N-(4-(methylsulfonyl)but-3-en-2-yl)-2-phenoxyquinoline-3-carboxamide]

Second part, the compound before the results:

Compound: 2-cyclopropyl-4-(((1R,2R)-2-fluorocyclohexyl)oxy)-N—((S,E)-4-(methylsulfonyl)but-3-en-2-yl)pyrimidine-5-carboxamide; or 2-cyclopropyl-4-(((1S,2S)-2-fluorocyclohexyl)oxy)-N—((S,E)-4-(methylsulfonyl)but-3-en-2-yl)pyrimidine-5-carboxamide [Example 149]
GI50 (SW480 cells; SW480 (MSS), 5-day incubation): > 10 µM
GI50 (HCT 116 cells; [2]): 2.5 µM
pIC50 [1, 3]: 5.11

Compound: CS(=O)(=O)C=CC1CN(C(=O)c2cnc(C3CC3)nc2Oc2ccccc2)C1 (racemic) [Example 22, (2-cyclopropyl-4-phenoxypyrimidin-5-yl)(3-(2-(methylsulfonyl)vinyl)azetidin-1-yl)methanone]
GI50 (SW480 cells; Homo sapiens, SW480, 120 h): 6.1 µM
GI50 (HCT 116 cells; Homo sapiens, HCT-116, 120 h): 2.5 µM
pIC50 [1]: 5.46

Compound: CC1C(=CC#N)CN1C(=O)c1cnc(C2CC2)nc1Oc1ccccc1 (racemic) [Example 265, 2-(1-(2-cyclopropyl-4-phenoxypyrimidine-5-carbonyl)-2-methylazetidin-3-ylidene)acetonitrile]
GI50 (SW480 cells; Homo sapiens, SW480, 120 h): > 10 µM
GI50 (HCT 116 cells; Homo sapiens, HCT-116, 120 h): 8.5 µM
pIC50 [1]: 5.14

Compound: C=C(C#N)[C@H](C)NC(=O)c1cnc(C(F)(F)C2CC2)nc1Oc1ccccc1 [275/276, (S)—N-(3-cyanobut-3-en-2-yl)-2-(cyclopropyldifluoromethyl)-4-phenoxypyrimidine-5-carboxamide/(R)—N-(3-cyanobut-3-en-2-yl)-2-(cyclopropyldifluoromethyl)-4-phenoxypyrimidine-5-carboxamide]
GI50 (SW480 cells; SW480 (MSS), 5-day incubation): 10 µM and 9.4 µM

Compound: C=C(C#N)[C@@H](NC(=O)c1cnc(C(C)(F)F)nc1Oc1ccccc1)C1CC1 [278/279, (S)—N-(2-cyano-1-cyclopropylallyl)-2-(1,1-difluoroethyl)-4-phenoxypyrimidine-5-carboxamide/(R)—N-(2-cyano-1-cyclopropylallyl)-2-(1,1-difluoroethyl)-4-phenoxypyrimidine-5-carboxamide]
GI50 (SW480 cells; SW480 (MSS), 5-day incubation): 11 µM
GI50 (HCT 116 cells; [2]): 0.35 µM

Compound: CS(=O)(=O)/C=C/CNC(=O)c1cnc(C2CCCC2)nc1Oc1cccc(F)c1 [Example 111, (E)-2-cyclopentyl-4-(3-fluorophenoxy)-N-(3-(methylsulfonyl)allyl)pyrimidine-5-carboxamide]
GI50 (SW480 cells; Homo sapiens, SW480, 120 h): > 10 µM
GI50 (HCT 116 cells; Homo sapiens, HCT-116, 120 h): 4.2 µM
pIC50 [1, 4]: 5.42

Compound: CS(=O)(=O)/C=C/CNC(=O)c1cnc(C2CCCC2)nc1Oc1ccc(Cl)cc1 [Example 120, (E)-4-(4-chlorophenoxy)-2-cyclopentyl-N-(3-(methylsulfonyl)allyl)pyrimidine-5-carboxamide]
GI50 (SW480 cells; Homo sapiens, SW480, 120 h): 4.8 µM
GI50 (HCT 116 cells; Homo sapiens, HCT-116, 120 h): 4.3 µM
pIC50 [1, 4]: 5.31

Compound: C[C@@H](/C=C/S(C)(=O)=O)NC(=O)c1cnc(C2CC2)nc1OC12CCC(CC1)C2 [Example 143, (S,E)-4-(bicyclo[2.2.1]heptan-1-yloxy)-2-cyclopropyl-N-(4-(methylsulfonyl)but-3-en-2-yl)pyrimidine-5-carboxamide]
GI50 (SW480 cells; Homo sapiens, SW480, 120 h): 13 µM
GI50 (HCT 116 cells; Homo sapiens, HCT-116, 120 h): 3.4 µM
pIC50 [1, 4]: 4.85

Compound: CC(F)(F)c1ncc(C(=O)N[C@H](/C=C/S(C)(=O)=O)C2CC2)c(O[C@@H]2C[C@@H]3C[C@@H]3C2)n1 [Example 158, 4-(((1R,3r,5S)-bicyclo[3.1.0]hexan-3-yl)oxy)-N—((S,E)-1-cyclopropyl-3-(methylsulfonyl)allyl)-2-(1,1-difluoroethyl)pyrimidine-5-carboxamide]
GI50 (SW480 cells; Homo sapiens, SW480, 120 h): 40 µM
GI50 (HCT 116 cells; Homo sapiens, HCT-116, 120 h): 0.36 µM
pIC50 [1, 4]: 5.82

Compound: CC(C)(C)c1ncc(C(=O)NC/C=C/S(C)(=O)=O)c(O[C@H]2C[C@@H]3C[C@@H]3C2)n1 [Example 159, 4-(((1R,3s,5S)-bicyclo[3.1.0]hexan-3-yl)oxy)-2-(tert-butyl)-N—((E)-3-(methylsulfonyl)allyl)pyrimidine-5-carboxamide]
GI50 (SW480 cells; SW480 (MSS), 5-day incubation): 12 µM
GI50 (HCT 116 cells; [2]): 2.5 µM
pIC50 [1, 3]: 5.16

Compound: [2H]c1c([2H])c([2H])c(Oc2nc(C(F)(F)C3CC3)ncc2C(=O)N[C@H](/C=C/S(C)(=O)=O)C2CC2)c([2H])c1[2H] [Example 229, (S,E)-N-(1-cyclopropyl-3-(methylsulfonyl)allyl)-2-(cyclopropyldifluoromethyl)-4-(phenoxy-d5)pyrimidine-5-carboxamide]
GI50 (SW480 cells; Homo sapiens, SW480, 120 h): 13 µM
GI50 (HCT 116 cells; Homo sapiens, HCT-116, 120 h): 0.013 µM
pIC50 [1, 4]: 7.24

Compound: C=C(C#N)[C@H](C)NC(=O)c1cnc(C(C)(F)F)nc1Oc1ccccc1 [Example 273/274, (S)—N-(3-cyanobut-3-en-2-yl)-2-(1,1-difluoroethyl)-4-phenoxypyrimidine-5-carboxamide/(R)—N-(3-cyanobut-3-en-2-yl)-2-(1,1-difluoroethyl)-4-phenoxypyrimidine-5-carboxamide]
GI50 (SW480 cells; SW480 (MSS), 5-day incubation): 16 µM
GI50 (HCT 116 cells; [2]): 0.122 µM
